Laboratory results from ChEMBL document CHEMBL1134401, “Property-based design: optimization of drug absorption and pharmacokinetics” (J Med Chem, 2001).

What was measured:
[1] = Half life was measured as time taken to decrease half of its initial concentration
[2] = Volume of distribution of the compound; settings: in vivo
[3] = Partition coefficient (logD); settings: octanol/water
[4] = Plasma clearance of the compound

## CCOC(=O)C1=C(C)NC(C)=C(C(=O)OC)C1c1cccc([N+](=O)[O-])c1 (stereo unspecified) [NITRENDIPINE]
[1]
  half-life: 4 h
[2]
  Vd: 3.8 L/kg
[3]
  logD: 4.2
[4]
  clearance: 21 mL/min/kg

## COC(=O)C1=C(C)NC(C)=C(C(=O)OC)C1c1ccccc1[N+](=O)[O-] [NIFEDIPINE]
[1]
  half-life: 1.9 h
[2]
  Vd: 1 L/kg

## CCOC(=O)C1=C(C)NC(C)=C(C(=O)OC)C1c1cccc(Cl)c1Cl (stereo unspecified) [FELODIPINE]
[3]
  logD: 4.8

## CO[C@H]1/C=C/O[C@@]2(C)Oc3c(C)c(O)c4c(c3C2=O)C2=NC3(CCN(CC(C)C)CC3)NC2=C(NC(=O)/C(C)=C\C=C\[C@H](C)[C@H](O)[C@@H](C)[C@@H](O)[C@@H](C)[C@H](OC(C)=O)[C@@H]1C)C4=O [RIFABUTIN]
[1]
  half-life: 45 h
[2]
  Vd: 266 L/kg
[4]
  clearance: 80 mL/min/kg

## CCOC(=O)C1=C(COCCN)NC(C)=C(C(=O)OC)C1c1ccccc1Cl (stereo unspecified) [AMLODIPINE]
[3]
  logD: 1.8

## CO[C@H]1/C=C/O[C@@]2(C)Oc3c(C)c(O)c4c(O)c(c(/C=N/N5CCN(C)CC5)c(O)c4c3C2=O)NC(=O)/C(C)=C\C=C\[C@H](C)[C@H](O)[C@@H](C)[C@@H](O)[C@@H](C)[C@H](OC(C)=O)[C@@H]1C [RIFAMPIN]
[2]
  Vd: 8.8 L/kg
[4]
  clearance: 32 mL/min/kg

## CO[C@H]1/C=C/O[C@@]2(C)Oc3c(C)c(O)c4c(O)c(cc(O)c4c3C2=O)NC(=O)/C(C)=C\C=C\[C@H](C)[C@H](O)[C@@H](C)[C@@H](O)[C@@H](C)[C@H](OC(C)=O)[C@@H]1C [RIFAMYCIN]
[1]
  half-life: 0.33 h
[2]
  Vd: 1.2 L/kg
[4]
  clearance: 80 mL/min/kg
